Assay results from PubChem BioAssay AID1963980 (Molecular Pharmacology Branch, DTP, NCI, 2024).

Tested on: 475296-252-R-J1-PDC spheroid viability
Experiment: Anticancer human tumor 475296-252-R-J1-PDC patient-derived rectal carcinoma cell line growth inhibition [PI3K]
Settings: spheroids with HUVEC and MSC; for IC50: curve of first compound; for viability, T/C: stronger effect = lower value
Summary of the method: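 Targeted small molecules plus PI3K inhibitors, half-log dose series from Cmax (default top 10 microM), were applied to heterotypic spheroids of cancer cells with HUVEC and MSCs. Viability indicated growth inhibition.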

[1] = second compound 0.00316 µM, first compound 0.0316 µM
[2] = second compound 0.00316 µM, first compound 0.1 µM
[3] = second compound 0.01 µM, first compound 0.0316 µM
[4] = second compound 0.01 µM, first compound 0.1 µM
[5] = second compound 0.0316 µM, first compound 0.0316 µM
[6] = second compound 0.0316 µM, first compound 0.1 µM
[7] = second compound 0.1 µM, first compound 0.0316 µM
[8] = second compound 0.1 µM, first compound 0.1 µM
[9] = second compound 0.316 µM, first compound 0.0316 µM
[10] = second compound 0.316 µM, first compound 0.1 µM
[11] = second compound 1 µM, first compound 0.0316 µM
[12] = second compound 1 µM, first compound 0.1 µM
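Also: spheroids exposed to agents for seven days before readout.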

`C[C@@H](NC(=O)c1ncnc(N)c1Cl)c1ncc(C(=O)Nc2cc(C(F)(F)F)c(Cl)cn2)s1` + COc1c(OCCCN2CCOCC2)ccc2c3n(c(=NC(=O)c4cnc(N)nc4)nc12)CCN3 showed an IC50 (second compound 0.00316 µM) of over 10 µM, an IC50 (second compound 0.01 µM) of over 10 µM and an IC50 (second compound 0.0316 µM) of over 10 µM. It also gave an IC50 (second compound 0.1 µM) of 7.87 µM, an IC50 (second compound 0.316 µM) of 9.5 µM and an IC50 (second compound 1 µM) of 3.76 µM. For the same compound, the viability, T/C [1] was 82.4%, the viability, T/C [2] was 88% and the viability, T/C (second compound 0.00316 µM, first compound 0.316 µM) was 94.8%. For the same compound, the viability, T/C (second compound 0.00316 µM, first compound 1 µM) was 101%, the viability, T/C (second compound 0.00316 µM, first compound 3.16 µM) was 94.5% and the viability, T/C (second compound 0.00316 µM, first compound 10 µM) was 79.3%. The viability, T/C [3] was 88%, the viability, T/C [4] was 86.8% and the viability, T/C (second compound 0.01 µM, first compound 0.316 µM) was 90.4%. It also gave a viability, T/C (second compound 0.01 µM, first compound 1 µM) of 85.9%, a viability, T/C (second compound 0.01 µM, first compound 3.16 µM) of 101% and a viability, T/C (second compound 0.01 µM, first compound 10 µM) of 67.3%. The viability, T/C [5] was 78.6%, the viability, T/C [6] was 83.7% and the viability, T/C (second compound 0.0316 µM, first compound 0.316 µM) was 79.7%. For the same compound, the viability, T/C (second compound 0.0316 µM, first compound 1 µM) was 78.1%, the viability, T/C (second compound 0.0316 µM, first compound 3.16 µM) was 80.8% and the viability, T/C (second compound 0.0316 µM, first compound 10 µM) was 61%. It also gave a viability, T/C [7] of 74.1%, a viability, T/C [8] of 74.1% and a viability, T/C (second compound 0.1 µM, first compound 0.316 µM) of 83.5%. The viability, T/C (second compound 0.1 µM, first compound 1 µM) was 69.3%, the viability, T/C (second compound 0.1 µM, first compound 3.16 µM) was 80.1% and the viability, T/C (second compound 0.1 µM, first compound 10 µM) was 43.3%. It also gave a viability, T/C [9] of 62.5%, a viability, T/C [10] of 61.8% and a viability, T/C (second compound 0.316 µM, first compound 0.316 µM) of 53.9%. For the same compound, the viability, T/C (second compound 0.316 µM, first compound 1 µM) was 67.4%, the viability, T/C (second compound 0.316 µM, first compound 3.16 µM) was 69% and the viability, T/C (second compound 0.316 µM, first compound 10 µM) was 32.6%. The viability, T/C [11] was 61.9%, the viability, T/C [12] was 58.6% and the viability, T/C (second compound 1 µM, first compound 0.316 µM) was 74.4%. For the same compound, the viability, T/C (second compound 1 µM, first compound 1 µM) was 58.9%, the viability, T/C (second compound 1 µM, first compound 3.16 µM) was 54.9% and the viability, T/C (second compound 1 µM, first compound 10 µM) was 23.8%.
With `Cn1ncnc1[C@H]1c2n[nH]c(=O)c3cc(F)cc(c23)N[C@@H]1c1ccc(F)cc1` + COc1c(OCCCN2CCOCC2)ccc2c3n(c(=NC(=O)c4cnc(N)nc4)nc12)CCN3 the IC50 (second compound 0.00316 µM) was over 0.1 µM, the IC50 (second compound 0.01 µM) was over 0.1 µM and the IC50 (second compound 0.0316 µM) was over 0.1 µM. The IC50 (second compound 0.1 µM) was over 0.1 µM, the IC50 (second compound 0.316 µM) was over 0.1 µM and the IC50 (second compound 1 µM) was over 0.1 µM. For the same compound, the viability, T/C (second compound 0.00316 µM, first compound 0.000316 µM) was 91.6%, the viability, T/C (second compound 0.00316 µM, first compound 0.001 µM) was 99% and the viability, T/C (second compound 0.00316 µM, first compound 0.00316 µM) was 115%. The viability, T/C (second compound 0.00316 µM, first compound 0.01 µM) was 99.5%, the viability, T/C [1] was 116% and the viability, T/C [2] was 109%. For the same compound, the viability, T/C (second compound 0.01 µM, first compound 0.000316 µM) was 95.5%, the viability, T/C (second compound 0.01 µM, first compound 0.001 µM) was 104% and the viability, T/C (second compound 0.01 µM, first compound 0.00316 µM) was 108%. For the same compound, the viability, T/C (second compound 0.01 µM, first compound 0.01 µM) was 99.4%, the viability, T/C [3] was 116% and the viability, T/C [4] was 94.7%. For the same compound, the viability, T/C (second compound 0.0316 µM, first compound 0.000316 µM) was 93.1%, the viability, T/C (second compound 0.0316 µM, first compound 0.001 µM) was 98% and the viability, T/C (second compound 0.0316 µM, first compound 0.00316 µM) was 106%. The viability, T/C (second compound 0.0316 µM, first compound 0.01 µM) was 99.2%, the viability, T/C [5] was 94.2% and the viability, T/C [6] was 93.3%. For the same compound, the viability, T/C (second compound 0.1 µM, first compound 0.000316 µM) was 85.3%, the viability, T/C (second compound 0.1 µM, first compound 0.001 µM) was 99.1% and the viability, T/C (second compound 0.1 µM, first compound 0.00316 µM) was 94.8%. For the same compound, the viability, T/C (second compound 0.1 µM, first compound 0.01 µM) was 75.1%, the viability, T/C [7] was 85% and the viability, T/C [8] was 75.8%. The viability, T/C (second compound 0.316 µM, first compound 0.000316 µM) was 82.4%, the viability, T/C (second compound 0.316 µM, first compound 0.001 µM) was 73.1% and the viability, T/C (second compound 0.316 µM, first compound 0.00316 µM) was 71.7%. It also gave a viability, T/C (second compound 0.316 µM, first compound 0.01 µM) of 86.1%, a viability, T/C [9] of 67.8% and a viability, T/C [10] of 75.7%. It also gave a viability, T/C (second compound 1 µM, first compound 0.000316 µM) of 65.4%, a viability, T/C (second compound 1 µM, first compound 0.001 µM) of 65% and a viability, T/C (second compound 1 µM, first compound 0.00316 µM) of 63.5%. The viability, T/C (second compound 1 µM, first compound 0.01 µM) was 70.8%, the viability, T/C [11] was 70.8% and the viability, T/C [12] was 55.4%.
